Assay results from ChEMBL document CHEMBL5518196, “Discovery of potent thiazolidin-4-one sulfone derivatives for inhibition of proliferation of osteosarcoma in vitro and in vivo” (Eur J Med Chem, 2024).

tested on: HOS-TE85; test: Antiproliferative activity against human MNNG/HOS cells assessed as inhibition of cell growth incubated for 72 hrs by CCK8 assay; format: functional, cell-based; settings: HOS-TE85, 72 h

SMILES	IC50 [nM]
O=C(NCCCCc1ccccc1)c1cccc(C2N(c3ccc(-c4ccccc4)cc3)C(=O)CS2(=O)=O)c1 (configuration not stated)	> 10000
CN(CCCCc1ccccc1)C(=O)c1cccc(C2N(c3ccccc3)C(=O)CS2(=O)=O)c1 (configuration not stated)	> 10000
Cc1ccnc(N2C(=O)C[S+]([O-])C2c2cccc(C(=O)NCCCCn3cccn3)n2)c1 (configuration not stated)	8290
O=C(NCCCCc1ccccc1)c1cccc(C2N(c3ccc4c(c3)OCO4)C(=O)CS2(=O)=O)c1 (configuration not stated)	73
COCCCCNC(=O)c1cccc(C2N(c3ncccc3OC)C(=O)C[S+]2[O-])n1 (configuration not stated)	> 1000
COC(=O)c1cc(C(=O)NCCCCc2ccccc2)cc(C2N(c3ccccc3)C(=O)CS2(=O)=O)c1 (configuration not stated)	60
Cc1ccnc(N2C(=O)C[S+]([O-])C2c2cccc(C(=O)NCCCCc3ccccc3)c2)c1 (configuration not stated)	74
O=C(NCCCCc1ccccc1)c1cccc(C2N(c3ncccc3O)C(=O)CS2(=O)=O)n1 (configuration not stated)	45
O=C(O)c1cc(C(=O)NCCCCc2ccccc2)cc(C2N(c3ccccc3)C(=O)CS2(=O)=O)c1 (configuration not stated)	> 10000
O=C(NCCCCc1ccccc1)c1cccc(C2N(c3cccc4cccnc34)C(=O)CS2(=O)=O)c1 (configuration not stated)	25
COc1ccccc1N1C(=O)CS(=O)(=O)C1c1cccc(C(=O)NCCCCc2ccccc2)n1 (configuration not stated)	4
O=C(NCCCCc1ccccc1)c1cccc(C2N(c3ccc[n+]([O-])c3)C(=O)CS2(=O)=O)c1 (configuration not stated)	> 10000
O=C(NCCCCO)c1cccc(C2N(c3ccccn3)C(=O)CS2(=O)=O)n1 (configuration not stated)	> 1000
O=C(NCCCCc1ccccc1)c1cccc(C2N(c3ccccc3)C(=O)CS2(=O)=O)n1 (configuration not stated)	> 10000
C#Cc1cc(C(=O)NCCCCc2ccccc2)cc(C2N(c3ccccc3)C(=O)CS2(=O)=O)c1 (configuration not stated)	9
O=C(NCCCCc1ccccc1)c1cccc(C2N(c3cccc(F)n3)C(=O)CS2(=O)=O)n1 (configuration not stated)	> 1000
COc1ccnc(N2C(=O)CS(=O)(=O)C2c2cccc(C(=O)NCCCCc3ccccc3)n2)c1 (configuration not stated)	178
O=C(NCCCCc1ccccc1)c1cccc(C2N(c3cc(Cl)ccn3)C(=O)CS2(=O)=O)n1 (configuration not stated)	469
O=C(NCCCCc1ccccc1)c1cccc(C2N(c3cccc(Cl)c3)C(=O)CS2(=O)=O)c1 (configuration not stated)	75
COc1cccc(N2C(=O)CS(=O)(=O)C2N(CCCCc2ccccc2)C(=O)c2ccccc2)c1 (configuration not stated)	68
CCN(CC)C(=O)CCCNC(=O)c1cccc(C2N(c3ccccn3)C(=O)CS2(=O)=O)n1 (configuration not stated)	> 1000
O=C(NCCCCc1ccccc1)c1cccc(C2N(c3cccc(F)c3)C(=O)CS2(=O)=O)n1 (configuration not stated)	17
Cc1ccnc(N2C(=O)C[S+]([O-])C2c2cccc(C(=O)NCCCCn3cccn3)c2)c1 (configuration not stated)	3120

SMILES	IC50 [nM]
Cc1ccnc(N2C(=O)CS(=O)(=O)C2c2cccc(C(=O)NCCCCn3cccn3)n2)c1 (configuration not stated)	924
O=C(NCCCCc1ccccc1)c1cccc(C2N(c3cccc(Cl)c3)C(=O)CS2(=O)=O)n1 (configuration not stated)	430
Cc1ccnc(N2C(=O)CS(=O)(=O)C2c2cccc(C(=O)NCCCCc3ccccc3)c2)c1 (configuration not stated)	71
COC(=O)c1cccc(C2N(c3ccccc3)C(=O)CS2(=O)=O)c1 (configuration not stated)	> 10000
COCCCCNC(=O)c1cccc([C@@H]2N(c3ncccc3OC)C(=O)CS2(=O)=O)n1	113
O=C(NCCCCn1cccn1)c1cccc(C2N(c3ccccn3)C(=O)CS2(=O)=O)n1 (configuration not stated)	979
O=C(NCCCCc1ccccc1)c1cccc(C2N(c3ccc4ccccc4c3)C(=O)CS2(=O)=O)c1 (configuration not stated)	474
C#Cc1cc(C(=O)NCCCCc2ccccc2)cc(C2N(c3ccccn3)C(=O)CS2(=O)=O)c1 (configuration not stated)	32
COCCCNC(=O)c1cccc(C2N(c3ccccn3)C(=O)CS2(=O)=O)n1 (configuration not stated)	926
COCCCCNC(=O)c1cccc([C@H]2N(c3ccc(F)cn3)C(=O)CS2(=O)=O)n1	137
CC(C)(C)OCCCCNC(=O)c1cccc(C2N(c3ccccn3)C(=O)CS2(=O)=O)n1 (configuration not stated)	> 1000
COC(=O)CCCNC(=O)c1cccc(C2N(c3ccccn3)C(=O)CS2(=O)=O)n1 (configuration not stated)	142
O=C(NCCCCc1ccccc1)c1cccc(C2N(c3ccc(F)cn3)C(=O)CS2(=O)=O)n1 (configuration not stated)	20
O=C(NCCCCc1ccccc1)c1cccc(C2N(CCc3ccccc3)C(=O)C[S+]2[O-])c1 (configuration not stated)	> 10000
O=C(CCCNC(=O)c1cccc(C2N(c3ccccn3)C(=O)CS2(=O)=O)n1)c1ccccc1 (configuration not stated)	203
Cc1cc(N2C(=O)C[S+]([O-])C2c2cccc(C(=O)NCCCCc3ccccc3)c2)no1 (configuration not stated)	354
Cc1ccnc(N2C(=O)CS[C@H]2c2cccc(C(=O)NCCCCn3cccn3)c2)c1	> 10000
O=C(NCCCCc1ccccc1)c1cccc(C2N(Cc3ccccc3)C(=O)C[S+]2[O-])c1 (configuration not stated)	> 10000
O=C(NCCCC(=O)N1CCCC1)c1cccc(C2N(c3ccccn3)C(=O)CS2(=O)=O)n1 (configuration not stated)	> 1000
COCCCCNC(=O)c1cccc(C2N(c3ccc(C)cn3)C(=O)CS2(=O)=O)n1 (configuration not stated)	262
CCCCNC(=O)c1cccc(C2N(c3ccccc3)C(=O)CS2(=O)=O)c1 (configuration not stated)	> 10000
Cc1cccnc1N1C(=O)CS(=O)(=O)C1c1cccc(C(=O)NCCCCc2ccccc2)n1 (configuration not stated)	50
Cc1cc(N2C(=O)CS(=O)(=O)C2c2cccc(C(=O)NCCCCc3ccccc3)c2)no1 (configuration not stated)	447

SMILES	IC50 [nM]
O=C(CCCNC(=O)c1cccc(C2N(c3ccccn3)C(=O)CS2(=O)=O)n1)Nc1ccccc1 (configuration not stated)	> 1000
O=C(CCCCc1ccccc1)Nc1cccc(C2N(c3ccccc3)C(=O)CS2(=O)=O)c1 (configuration not stated)	508
O=C(NCCCCc1ccccc1)c1cc(C(=O)NCCCCc2ccccc2)cc(C2N(c3ccccc3)C(=O)CS2(=O)=O)c1 (configuration not stated)	> 10000
O=C(NCCCCc1ccccc1)c1cccc(C2N(c3cccc(F)c3)C(=O)C[S+]2[O-])c1 (configuration not stated)	83
O=C(NCCCCc1ccccc1)c1cccc(C2N(c3ccccc3)C(=O)C[S+]2[O-])c1 (configuration not stated)	3110
COC(=O)CCCCNC(=O)c1cccc(C2N(c3ccccn3)C(=O)CS2(=O)=O)n1 (configuration not stated)	225
Cc1cccc(N2C(=O)C[S+]([O-])C2c2cccc(C(=O)NCCCCc3ccccc3)c2)c1 (configuration not stated)	177
O=C(NCCCCc1ccccc1)c1ccc(C2N(c3ccccc3)C(=O)CS2(=O)=O)o1 (configuration not stated)	41
O=C(NCCCCc1ccccc1)c1cccc(C2N(c3ccccc3)C(=O)C[S+]2[O-])n1 (configuration not stated)	260
O=C1CS(=O)(=O)C(c2cccc(C(=O)NCCCCc3ccccc3)c2)N1 (configuration not stated)	> 10000
O=C(NCCCCc1ccccc1)c1cccc(C2N(Cc3ccccc3)C(=O)CS2(=O)=O)c1 (configuration not stated)	> 10000
O=C(NCCCCc1ccccc1)c1cccc(C2N(c3ccccn3)C(=O)CS2(=O)=O)n1 (configuration not stated)	109
Cc1ccc(N2C(=O)CS(=O)(=O)C2c2cccc(C(=O)NCCCCc3ccccc3)n2)nc1 (configuration not stated)	31
CCCCNC(=O)c1cccc(C2N(c3ccccn3)C(=O)CS2(=O)=O)n1 (configuration not stated)	420
COC(=O)CCNC(=O)c1cccc(C2N(c3ccccn3)C(=O)CS2(=O)=O)n1 (configuration not stated)	> 1000
O=C(NCCCCc1ccccc1)c1cccc(C2N(CCc3ccccc3)C(=O)CS2(=O)=O)c1 (configuration not stated)	> 10000
O=C(CCCNC(=O)c1cccc(C2N(c3ccccn3)C(=O)CS2(=O)=O)n1)Nc1ccc(F)cc1 (configuration not stated)	> 1000
O=C(NCCOCc1ccccc1)c1cccc(C2N(c3ccccn3)C(=O)CS2(=O)=O)n1 (configuration not stated)	> 1000
COCCCCNC(=O)c1cccc(C2N(c3ccc(F)cn3)C(=O)CS2(=O)=O)n1 (configuration not stated)	283
Cc1cccc(N2C(=O)CS(=O)(=O)C2c2cccc(C(=O)NCCCCc3ccccc3)n2)n1 (configuration not stated)	775
O=C(NCCCCc1ccccc1)c1cccc(C2N(c3cccc4ccccc34)C(=O)CS2(=O)=O)c1 (configuration not stated)	> 10000
